Experimental data reported in patent US7645784B2, “Benzimidazole derivatives” (AstraZeneca AB, priority 2003, dated 2010).

Target: T1, hVR1 (Homo sapiens, UniProt Q8NER1)
T1 construct: expressed in transfected cells
Assay: hVR1 FLIPR (Fluorometric Image Plate Reader) screening assay, IC50 determination
Type: cell-based
Details: CHO cells stably expressing hVR1
Method: 1. hVR1 FLIPR (Fluorometric Image Plate Reader) screening assay
Transfected CHO cells, stably expessing hVR1 (15,000 cells/well) are seeded in 50 μL media in a black clear bottom 384 plate (Greiner) and grown in a humidified incubator (37° C., 2% CO2), 24-30 hours prior to experiment.
Subsequently, the media is removed from the cell plate by inversion and 2 μM Fluo-4 is added using a multidrop (Labsystems). Following the 40 min dye incubation in the dark at 37° C. and 2% CO2, the extracellular dye present is washed away using an EMBLA (Scatron), leaving the cells in 40 μL of assay buffer (1×HBSS, 10 mM D-Glucose, 1 mM CaCl2,10 mM HEPES, 10×7.5% NaHCO3 and 2.5 mM Probenecid).
FLIPR assay—IC50 determination protocol
For IC50 determinations the fluorescence is read using FLIPR filter 1 (em […]). A cellular baseline recording is taken for 30 seconds, followed by a 20 μL addition of 10, titrated half-log concentrations of the test compound, yielding cellular concentration ranging from 3 μM to 0.1 nM. Data is collected every 2 seconds for a further 5 min prior to the addition of a VR1 agonist solution: either 50 nM solution of capsaicin or MES (2-[N-morpholino]ethanesulfonic acid) buffer (pH 5.2), by the FLIPR pipettor. The FLIPR continues to collect data for a further 4 min. Compounds having antagonistic properties against the hVR1 will inhibit the increase in intracellular calcium in response to the capsaicin addition. This consequently leading to a reduction in fluorescence signal and providing a reduced fluorescence reading, compared with no compound, buffer controls. Data is exported by the FLIPR program as a sum of fluorescence calculated under the curve upon the addition of capsaicin. Maximum inhibition, Hill slope and IC50 data for each compound are generated.

T1 sequence (Q8NER1 whole entry): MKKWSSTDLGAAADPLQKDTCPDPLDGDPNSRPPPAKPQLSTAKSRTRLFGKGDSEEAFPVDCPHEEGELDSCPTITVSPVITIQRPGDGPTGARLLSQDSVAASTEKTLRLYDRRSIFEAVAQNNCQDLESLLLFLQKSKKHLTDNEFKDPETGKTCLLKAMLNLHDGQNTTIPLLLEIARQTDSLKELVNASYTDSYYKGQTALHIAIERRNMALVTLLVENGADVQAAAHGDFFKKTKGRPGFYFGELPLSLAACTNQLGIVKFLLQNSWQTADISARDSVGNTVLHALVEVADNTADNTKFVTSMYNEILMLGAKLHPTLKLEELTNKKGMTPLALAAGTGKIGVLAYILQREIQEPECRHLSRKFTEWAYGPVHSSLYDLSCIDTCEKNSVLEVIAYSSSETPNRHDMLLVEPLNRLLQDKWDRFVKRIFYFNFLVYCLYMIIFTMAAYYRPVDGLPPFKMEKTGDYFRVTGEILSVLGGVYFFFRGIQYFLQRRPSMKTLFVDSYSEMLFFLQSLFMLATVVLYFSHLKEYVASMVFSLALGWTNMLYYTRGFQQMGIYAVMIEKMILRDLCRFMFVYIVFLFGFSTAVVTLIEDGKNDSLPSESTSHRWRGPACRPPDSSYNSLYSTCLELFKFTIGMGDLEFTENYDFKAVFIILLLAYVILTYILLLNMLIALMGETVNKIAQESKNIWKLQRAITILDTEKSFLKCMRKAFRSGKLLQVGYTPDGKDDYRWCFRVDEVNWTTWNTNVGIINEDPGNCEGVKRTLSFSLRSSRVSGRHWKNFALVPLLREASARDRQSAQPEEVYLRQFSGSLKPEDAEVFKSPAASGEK

IC50 (agonist H+/MES buffer (pH 5.2)) [nM] | IC50 (agonist capsaicin) [nM] | SMILES
70 | 50 | O=C(Cn1cnc2cccc([N+](=O)[O-])c21)Nc1cc(F)cc(F)c1 [Example 7, N-(3,5-Difluorophenyl)-2-(7-nitro-1H-benzimidazol-1-yl)acetamide]
140 | 160 | COC(=O)c1cccc2ncn(CC(=O)Nc3cc(OC)cc(OC)c3)c12 [Example 67, Methyl 1-{2-[(3,5-dimethoxyphenyl)amino]-2-oxoethyl}-1H-benzimidazole-7-carboxylate]
